For orientation: IC50 means the concentration that gives 50% inhibition. A low value points to greater potency in that assay.

Results on 2 compounds are retold here after ChEMBL document CHEMBL1146411, “1-Hydroxyditerpenes from Two New Zealand Liverworts, Paraschistochila pinnatifolia and Trichocolea mollissima” (J Nat Prod, 1997).

Values after ≈ are worked out from the molar mass of the structure shown. Active and inactive are the calls of the source. The rule behind the calls is not given here.

One data set deals with P388. Kind of data set: Cytotoxicity against mouse P388 cells. It counts as functional, cell-based.
The next data set deals with Candida albicans. Description: Antimicrobial activity against Candida albicans at 60 ug/disk. It counts as functional, organism-based.
Data set [1] in a line: Cytotoxicity against […] BSC cells at 60 ug/disk. Format: cell-based.

`C=C[C@@]1(C)C=C2CC[C@@H]3C(C)(C)CC[C@H](O)[C@@]3(C)[C@@H]2CC1` gave an IC50 in the data set with P388 greater than 25 µg/mL. In addition, the result with Candida albicans was inactive. Besides, the Activity entry in data set [1] is listed as “Not Active”.
Turning to `C[C@@H]1C[C@@]23CC[C@@H]4C(C)(C)CC[C@H](O)[C@@]4(C)[C@@H]2CC(=O)[C@@H]1C3`, the IC50 in the data set on P388 was determined as 15 µg/mL (≈ 49.3 µM).
